Entries after “also recorded” stand apart in the source; their conditions may differ.
What was measured:
GluCl α&β [1] = target: T1, GluCl α&β (Caenorhabditis elegans, UniProt G5EBR3+Q17328); experiment: Antagonist block of ligand-activated current in oocytes injected with GluClα and GluClβ RNA; type: cell-based, C. elegans; settings: for inhibition at 100 µM: read-out: % Block; for % Block: blocker 100 μM
T1 construct: the full-length open reading frame of the GluCl cDNA encoding the GluClα (52,550 kDa) and GluClβ (49,900kDa) subunits; expressed in transfected cells; host or cells: Xenopus laevis oocytes injected with in vitro RNA
T1 sequence (G5EBR3 21-461): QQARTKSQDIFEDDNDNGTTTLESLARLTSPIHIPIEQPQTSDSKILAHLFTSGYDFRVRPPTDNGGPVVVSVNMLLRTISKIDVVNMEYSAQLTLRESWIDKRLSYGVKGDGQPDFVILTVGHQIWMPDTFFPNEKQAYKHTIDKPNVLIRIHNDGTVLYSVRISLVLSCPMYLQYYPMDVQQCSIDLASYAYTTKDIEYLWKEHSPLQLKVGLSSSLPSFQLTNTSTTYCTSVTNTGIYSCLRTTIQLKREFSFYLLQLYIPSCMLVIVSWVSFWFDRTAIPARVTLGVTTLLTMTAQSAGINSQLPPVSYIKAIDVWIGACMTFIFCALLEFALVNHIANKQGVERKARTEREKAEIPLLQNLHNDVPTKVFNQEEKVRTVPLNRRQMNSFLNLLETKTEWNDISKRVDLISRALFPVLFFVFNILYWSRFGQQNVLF
T1 sequence (Q17328 23-434): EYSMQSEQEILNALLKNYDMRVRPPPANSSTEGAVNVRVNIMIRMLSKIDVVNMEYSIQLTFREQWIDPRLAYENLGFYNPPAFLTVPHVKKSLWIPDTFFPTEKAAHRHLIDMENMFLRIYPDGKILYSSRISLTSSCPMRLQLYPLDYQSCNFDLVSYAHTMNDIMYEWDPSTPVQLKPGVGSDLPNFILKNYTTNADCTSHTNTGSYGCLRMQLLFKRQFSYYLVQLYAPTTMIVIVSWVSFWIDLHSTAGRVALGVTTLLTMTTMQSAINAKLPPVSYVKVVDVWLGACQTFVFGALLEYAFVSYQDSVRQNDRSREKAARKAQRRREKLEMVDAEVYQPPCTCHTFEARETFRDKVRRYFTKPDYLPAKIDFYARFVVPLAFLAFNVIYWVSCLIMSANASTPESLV
Protocol: (§1) Xenopus laevis oocytes were prepared and injected using standard methods previously described and known in the art [Arena, J. P., Liu. K. K., Paress, P. S. & Cully. D. F. Mol. Pharmacol. 40, 368-374 (1991 ); Arena, J. P., Liu, K. K., Paress, P. S., Schaeffer, J. M. & Cully, D. F. Mol. Brain Res. 15, 339-348 (1992)]. Adult female Xenopus laevis were anesthetized with 0.17% tricaine methanesulfonate and the ovaries were surgically removed and placed in a dish consisting of (mM): NaCl 1 82.5, KCl 2. MgCl2 1, CaCl2 1.8, HEPES 5 adjusted to pH 7.5 with NaOH (OR-2). Ovarian lobes were broken open, rinsed several times, and gently shaken in OR-2 containing 0.2% collagenase (Sigma, Type 1A) for 2-5 hours. When approximately 50% of the follicular layers were removed, Stage V and VI oocytes were selected and placed in media consisting of (mM): NaCl 86, KCl 2, MgCl2 1, CaCl2 1.8, HEPES 5, Na pyruvate 2.5, theophylline 0.5, gentamicin 0.1 adjusted to pH 7.5 with NaOH (ND-96) for 24-48 hours before injection. Oocytes were injected with 50-70 nl of poly(A^+) RNA (1 mg/ml) or 50 nl of GluClα (0.1-100 ng) and/or GluClβ (0.1-100 ng). Control oocytes were injected with 50 nl of water. Oocytes were incubated for 2-10 days in ND-96 before recording. Incubations and collagenase digestion were carried out at 18° C.
(§2) Recordings were made at room temperature 2-10 days after injection. Unless otherwise indicated recordings were made in standard frog saline consisting of (mM): NaCl 115, KCl 2, MgCl2 1, CaCl2 1.8, HEPES 10 adjusted to pH 7.5 with NaOH. Oocytes were voltage-clamped using a standard two microelectrode amplifier (Dagan 8500 or TEV-200, Minneapolis,Minn.). Pipettes were filled with 3M KCl and had resistances between 0.5-3.0 M.OMEGA.. A plexiglass recording chamber (volume 200 μl) was constantly perfused at a rate of 10 ml/min. The recording chamber was connected to ground with a Ag/AgCl electrode directly, or through a 3M KCl agar bridge when extracellular chloride was varied. For low chloride solutions NaCl was replaced with equimolar concentrations of sodium isethionic acid. For low sodium solutions NaCl was replaced with equimolar KCl or choline Cl. Data were acquired and analyzed using PCLAMP with a TL-1 interface (Axon Instruments, Foster City, Calif.). Membrane current at a holding potential of -80 mV was recorded. The amplitude of drug-sensitive current was determined by subtracting the holding current at -80 mV from the peak current obtained in the presence of drug. Data were filtered at 30 Hz and sampled at 16.6 Hz. Current/voltage relationships (I/V) and reversal potentials (Erev) were determined using a 1-3 sec voltage ramp over the voltage range of -110 to +80 mV. For the ramps, data were filtered at 0.3-3 kHz and sampled at 160 Hz. Current in drug free solution was subtracted from current in the presence of drug to obtain drug-sensitive current/voltage relationships.
Oocytes were injected simultaneously with GluClα and GluClβ RNA
(25 pg each). n=at least four for each group. a- Data are expressed as %
acid. e- Block was considered zero if response in the presence of blocker
was ± 3% of control. f- (-)-Bicuculline methochloride g.

GluClα [2] = target: T2, GluClα (Caenorhabditis elegans, UniProt G5EBR3); experiment: Permeability (reversal potential) of GluClα channels in oocytes; type: cell-based, C. elegans; set-up: homomeric channel; voltage clamp reversal potentials; settings: Erev in Na isothionate
T2 sequence (G5EBR3 21-461): T1 sequence (G5EBR3 21-461)
Protocol: Xenopus laevis oocytes were prepared and injected using standard methods previously described and known in the art [Arena, J. P., Liu. K. K., Paress, P. S. & Cully. D. F. Mol. Pharmacol. 40, 368-374 (1991 ); Arena, J. P., Liu, K. K., Paress, P. S., Schaeffer, J. M. & Cully, D. F. Mol. Brain Res. 15, 339-348 (1992)]. Adult female Xenopus laevis were anesthetized with 0.17% tricaine methanesulfonate and the ovaries were surgically removed and placed in a dish consisting of (mM): NaCl 1 82.5, KCl 2. MgCl2 1, CaCl2 1.8, HEPES 5 adjusted to pH 7.5 with NaOH (OR-2). Ovarian lobes were broken open, rinsed several times, and gently shaken in OR-2 containing 0.2% collagenase (Sigma, Type 1A) for 2-5 hours. […]
Recordings were made at room temperature 2-10 days after injection. […] Data were acquired and analyzed using PCLAMP with a TL-1 interface (Axon Instruments, Foster City, Calif.). Membrane current at a holding potential of -80 mV was recorded. The amplitude of drug-sensitive current was determined by subtracting the holding current at -80 mV from the peak current obtained in the presence of drug. […] Current/voltage relationships (I/V) and reversal potentials (Erev) were determined using a 1-3 sec voltage ramp over the voltage range of -110 to +80 mV. […]

GluCl α&β [3] = target: T1, GluCl α&β; experiment: Agonist activation of current in Xenopus oocytes injected with GluClα and GluClβ RNA (two-microelectrode voltage clamp); type: cell-based, C. elegans
Protocol: as §1, §2
(§3) Electrophysiological properties were examined in oocytes injected with in vitro RNA from pGluClα and pGluClβ (FIG. 5).
Several ligand-gated ion channel agonists and antagonists were tested on oocytes injected with GluCl α&β (Table 1). […] 255, 449-464 (1976); Arena, J. P., Liu, K. K., Paress, P. S., Schaeffer, J. M. & Cully, D. F. Mol. Brain Res. 15, 339-348 (1992); Lea, T. J. & Usherwood, P. N. R. Comp. Gen. Pharmacol. 4, 351-363 (1973)].

[4] = test system: glutamate- and avermectin-sensitive chloride channel (C. elegans poly(A)+ RNA); settings: cited from earlier work
arthropod H-receptors = settings: cited from earlier work
GluClβ = target: T3, GluClβ (Caenorhabditis elegans, UniProt Q17328); experiment: Activation of current in Xenopus oocytes expressing homomeric GluClβ (voltage clamp); type: cell-based, C. elegans
T3 construct: the full-length open reading frame of the GluCl cDNA encoding the GluClα (52,550 kDa) and GluClβ (49,900kDa) subunits; expressed in transfected cells; host or cells: Xenopus laevis oocytes injected with in vitro RNA
T3 sequence (Q17328 23-434): T1 sequence (Q17328 23-434)
Protocol: as §1, §2, §3

GluClα [5] = target: T2, GluClα; experiment: Activation of current in Xenopus oocytes expressing homomeric GluClα (voltage clamp); type: cell-based, C. elegans; set-up: the full-length open reading frame of the GluCl cDNA encoding the GluClα (52,550 kDa) and GluClβ (49,900kDa) subunits; expressed in transfected cells; host or cells: Xenopus laevis oocytes injected with in vitro RNA
Protocol: as §1, §2, §3

GluClα [6] = target: T2, GluClα; experiment: 3H-glutamate equilibrium binding to GluClα injected oocyte membranes; set-up: the full-length open reading frame of the GluCl cDNA encoding the GluClα (52,550 kDa) and GluClβ (49,900kDa) subunits; expressed in transfected cells; host or cells: Xenopus laevis oocytes injected with in vitro RNA; species or system C. elegans; settings: membrane preparations from GluClα-injected oocytes
Protocol: (§4) Oocytes injected with GluClα and GluClβ in vitro RNA were used in ^3 H-ivermectin and ^3 H-glutamate binding assays. GluClα (1 ng) or GluClβ RNA (1 ng) were injected into oocytes individually, or coinjected (0.5 ng each) and 2 days later the oocytes were disrupted with a dounce homogenizer and yolk proteins removed using standard methods known in the art. Equilibrium ligand binding assays were performed using conventional procedures. […] Oocytes expressing GluCl α&β are used to measure the affinity of binding of othere compounds and their ability to displace ^3 H-ivermectin and ^3 H-glutamate binding.

GluCl α&β [7] = target: T1, GluCl α&β; experiment: 3H-ivermectin equilibrium binding to GluCl α&β RNA injected oocytes; set-up: species or system C. elegans; settings: read-out: affinity of 3H-ivermectin binding; oocytes expressing GluCl α&β
Protocol: as §4

GluClα [8] = target: T2, GluClα; experiment: 3H-ivermectin equilibrium binding to GluClα RNA injected oocytes; set-up: the full-length open reading frame of the GluCl cDNA encoding the GluClα (52,550 kDa) and GluClβ (49,900kDa) subunits; expressed in transfected cells; host or cells: Xenopus laevis oocytes injected with in vitro RNA; species or system C. elegans; settings: read-out: affinity of 3H-ivermectin binding; oocytes expressing GluClα
Protocol: as §4

In the case of `O=C(O)c1ccccc1Nc1cccc(C(F)(F)F)c1` [Flufenamic Acid], the “block of glutamate- and IVMPO4-sensitive currents” value (GluCl α&β [1]) is reported as “blocked; also recorded: low affinity block” and the inhibition at 200 µM (GluCl α&β [1]; blocker 200 μM, ligand IVMPO4 1 μM) is reported as 60 ± 4%.

With `O=S(=O)(O)CCO` [isothionate] the “permeability ratio to chloride” value (GluClα [2]) was 0.2.

`O=C1C[C@@H]2OCC=C3CN4CC[C@]56c7ccccc7N1[C@H]5[C@H]2[C@H]3C[C@H]46` [Strychnine] gave an inhibition at 100 µM (GluCl α&β [1]) of 0%.

For `NC(C(=O)O)c1cc(=O)[nH]o1` (stereo not shown) [Ibotenate], the “activation of current / sensitivity of coexpressed GluCl α&β” value (GluCl α&β [3]) is listed as “direct activation of current”, the Emax at 500 µM (GluCl α&β [3]; read-out: % of Glutamate 10 mM) is listed as 18 ± 2% and the “effect on glutamate- and avermectin-sensitive current” value [4] is listed as “activated”. For the same compound, the “effect on arthropod H-receptors” value (arthropod H-receptors) was “activated”.

`N#Cc1cc2[nH]c(=O)c(=O)[nH]c2cc1[N+](=O)[O-]` [CNQX, 6-cyano-7-nitroquino-xaline-2,3-dione] gave an inhibition at 10 µM (GluCl α&β [1]) of 0%.

With Picrotoxin the “block of glutamate- and IVMPO4-sensitive currents” value (GluCl α&β [1]) was “blocked; also recorded: low affinity block”, the “% Block” value (GluCl α&β [1]; ligand IVMPO4 1 μM) was 61 ± 2% and the “% Block” value (GluCl α&β [1]; ligand glutamate 1 mM, zero if within ± 3% of control) was 68 ± 4%. For the same compound, the “effect on glutamate- and avermectin-sensitive current” value [4] was “blocked with low affinity” and the “effect on arthropod H-receptors” value (arthropod H-receptors) was “blocked with low affinity”.

For `NCC(=O)O` [Glycine], the “activation of current / sensitivity of coexpressed GluCl α&β” value (GluCl α&β [3]) was “insensitivity”, the “sensitivity of GluClβ homomeric channels” value (GluClβ) was “insensitive” and the “sensitivity of GluClα homomeric channels” value (GluClα [5]) was “insensitive”.

In the case of `NCCCC(=O)O` [GABA], the “activation of current / sensitivity of coexpressed GluCl α&β” value (GluCl α&β [3]) is listed as “insensitivity”, the “sensitivity of GluClβ homomeric channels” value (GluClβ) is listed as “insensitive” and the “effect on arthropod H-receptors” value (arthropod H-receptors) is listed as “not activated”. The “sensitivity of GluClα homomeric channels” value (GluClα [5]) was “insensitive”.

In the case of ^3 H-glutamate, the “Specific 3H-glutamate binding” value (GluClα [6]) is reported as “observed”.

`CC[C@H](C)[C@H]1O[C@]2(CC[C@@H]1C)C[C@@H]1C[C@@H](C/C=C(\C)[C@@H](O[C@H]3C[C@H](OC)[C@@H](O[C@H]4C[C@H](OC)[C@@H](O)[C@H](C)O4)[C@H](C)O3)[C@@H](C)/C=C/C=C3\CO[C@@H]4[C@H](O)C(C)=C[C@@H](C(=O)O1)[C@]34O)O2` [^3 H-ivermectin, 22,23-dihydroavermectin B1a] gave a Kd (GluCl α&β [7]) of roughly 0.2 nM and a Kd (GluClα [8]) of roughly 0.2 nM.

For `C[N+]1(C)CCc2cc3c(cc2C1C1OC(=O)c2c1ccc1c2OCO1)OCO3` (single isomer, unassigned; (-)) [Bicuculline, (-)-Bicuculline methochloride], the inhibition at 100 µM (GluCl α&β [1]) was 0%.
